Earlier results on nine compounds are cited in patent US20010026813A1, “Extract from scutellariae radix having neuroprotective effects and pharmaceutical preparations containing the same” (priority 2000, published 2001).

Structures are written as SMILES. Where two headings read alike, the source gives them in different places.

In the series the test system is 4-VO models.

In the case of `CNC(=O)N1N=C(c2ccc(N)cc2)c2cc3c(cc2CC1C)OCO3` (stereo not drawn) [LY300168], where the note is “dose not given”, the defensive level is listed as 23%.

Consider `CC1=NN=C(c2ccc(N)cc2)c2cc3c(cc2C1)OCO3` [GYK152466], for which, where the note is “dose not given”, the defensive level is 11%.

As to `NS(=O)(=O)c1cccc2c1c([N+](=O)[O-])cc1nc(O)c(O)nc12` [NBQX], the defensive level (30 mg/kg, i.p.) is 42%.

Take `OC(CN1CCC(Cc2ccc(F)cc2)CC1)c1ccc(Cl)cc1` (stereo not drawn) [eliprodil]: the defensive level (20 mg/kg, i.p.) is given as 25%.

As for `O=[N+]([O-])c1cccc2c(Br)n[nH]c12` [3-bromo-7-nitroindazole], the defensive level (dose not given) is listed as 20%.

With `O=[N+]([O-])c1cccc2cn[nH]c12` [Example 7-NI], under “dose not given”, the defensive level was 17.5%.

With `COC(=O)[C@@H](N)CCCNC(=N)N[N+](=O)[O-]` [L-NAME], the defensive level (dose not given) was 23%.

Take `CCNCc1cc(C(C)(C)C)c(O)c(C(C)(C)C)c1` [LY231617]: where the note is “dose not given”, the defensive level was 25-30%.

As for `C[C@]12N[C@H](Cc3ccccc31)c1ccccc12` [MK-801], under “2 mg/kg, i.p.”, the defensive level is listed as 24%.
